Among the data in patent US20250262201A1, “COMPOUNDS AND METHODS USEFUL FOR STABILIZING PHENYLALANINE HYDROXYLASE MUTATIONS” (Agios Pharmaceuticals, Inc., priority 2022, published 2025) are AC50 values, retold here.

This assay deals with T1, human PAH with the R408W mutation (Homo sapiens, UniProt P00439, R408W).
T1 construct: expressed in transfected cells
T1 sequence (P00439 1-452 R408W): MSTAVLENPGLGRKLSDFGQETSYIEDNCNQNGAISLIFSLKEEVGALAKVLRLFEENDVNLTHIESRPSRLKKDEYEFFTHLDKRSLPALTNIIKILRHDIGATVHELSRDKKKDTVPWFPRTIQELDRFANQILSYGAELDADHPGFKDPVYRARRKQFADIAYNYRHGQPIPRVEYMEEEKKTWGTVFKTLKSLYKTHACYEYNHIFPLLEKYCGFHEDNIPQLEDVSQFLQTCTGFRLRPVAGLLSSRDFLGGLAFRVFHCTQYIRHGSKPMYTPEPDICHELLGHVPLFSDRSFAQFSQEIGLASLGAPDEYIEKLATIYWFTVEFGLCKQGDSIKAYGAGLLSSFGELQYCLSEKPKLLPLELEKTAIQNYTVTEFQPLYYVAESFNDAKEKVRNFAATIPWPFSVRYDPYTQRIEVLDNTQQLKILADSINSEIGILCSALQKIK
As to the kind of experiment: Cell Based Phenylalanine Flux Assay. The following applies: A375 cells expressing human R408W PAH; 24 hrs compound incubation; 13C-Tyrosine by LC-MS; average where tested multiple times; read-out: AC50.
Turning to `CC(C)(O)c1ncc(C(=O)N2CCc3[nH]cnc3[C@@H]2c2cc3ccccc3cn2)s1` [Example 329, (S)-(2-(2-hydroxypropan-2-yl)thiazol-5-yl)(4-(isoquinolin-3-yl)-6,7-dihydro-1H-imidazo[4,5-c]pyridin-5(4H)-yl)methanone], the AC50 was above 5000 nM.

As for `CN(C)Cc1ccc2c(C(=O)N3CCc4[nH]cnc4[C@H]3c3cc4ccccc4cn3)cnn2c1` [Example 330, (R)-(6-((dimethylamino)methyl)pyrazolo[1,5-a]pyridin-3-yl)(4-(isoquinolin-3-yl)-6,7-dihydro-1H-imidazo[4,5-c]pyridin-5(4H)-yl)methanone], the AC50 is below 500 nM.

In the case of `CN(C)Cc1ccc2c(C(=O)N3CCc4[nH]cnc4[C@@H]3c3cc4ccccc4cn3)cnn2c1` [Example 331, (S)-(6-((dimethylamino)methyl)pyrazolo[1,5-a]pyridin-3-yl)(4-(isoquinolin-3-yl)-6,7-dihydro-1H-imidazo[4,5-c]pyridin-5(4H)-yl)methanone], the AC50 was above 5000 nM.

For `CC(C)(F)c1ncc(C(=O)N2CCc3[nH]cnc3[C@H]2c2cc3ccccc3cn2)s1` [Example 332, (R)-(2-(2-fluoropropan-2-yl)thiazol-5-yl)(4-(isoquinolin-3-yl)-6,7-dihydro-1H-imidazo[4,5-c]pyridin-5(4H)-yl)methanone], the concentration at half-maximal activity (AC50) is below 500 nM.

For the molecule `CC(C)(F)c1ncc(C(=O)N2CCc3[nH]cnc3[C@@H]2c2cc3ccccc3cn2)s1` [Example 333, (S)-(2-(2-fluoropropan-2-yl)thiazol-5-yl)(4-(isoquinolin-3-yl)-6,7-dihydro-1H-imidazo[4,5-c]pyridin-5(4H)-yl)methanone], the half-maximal activity concentration (AC50) was in the range of 1000 to 5000 nM.

Consider `O=C(c1nnc(-c2c(F)cccc2F)o1)N1CCc2[nH]cnc2[C@H]1c1cc2ccccc2cn1` [Example 334, (R)-(5-(2,6-difluorophenyl)-1,3,4-oxadiazol-2-yl)(4-(isoquinolin-3-yl)-6,7-dihydro-1H-imidazo[4,5-c]pyridin-5(4H)-yl)methanone], for which the AC50 is below 500 nM.

Regarding `O=C(c1nnc(-c2c(F)cccc2F)o1)N1CCc2[nH]cnc2[C@@H]1c1cc2ccccc2cn1` [Example 335, (S)-(5-(2,6-difluorophenyl)-1,3,4-oxadiazol-2-yl)(4-(isoquinolin-3-yl)-6,7-dihydro-1H-imidazo[4,5-c]pyridin-5(4H)-yl)methanone], the concentration at half-maximal activity (AC50) was 1000 to 5000 nM.

Take `Fc1ccc(-c2nnc(N3CCc4[nH]cnc4[C@@H]3c3cc4ccccc4cn3)o2)cc1` [Example 336, (S)-2-(4-fluorophenyl)-5-(4-(isoquinolin-3-yl)-6,7-dihydro-1H-imidazo[4,5-c]pyridin-5(4H)-yl)-1,3,4-oxadiazole]: the AC50 is above 5000 nM.

Consider `Fc1ccc(-c2nnc(N3CCc4[nH]cnc4[C@H]3c3cc4ccccc4cn3)o2)cc1` [Example 337, (R)-2-(4-fluorophenyl)-5-(4-(isoquinolin-3-yl)-6,7-dihydro-1H-imidazo[4,5-c]pyridin-5(4H)-yl)-1,3,4-oxadiazole], for which the AC50 was below 500 nM.

On to `CC(C)(F)c1ncc(C(=O)N2CCc3[nH]cnc3[C@@H]2c2cc3ccccc3cn2)o1` [Example 338, (S)-(2-(2-fluoropropan-2-yl)oxazol-5-yl)(4-(isoquinolin-3-yl)-6,7-dihydro-1H-imidazo[4,5-c]pyridin-5(4H)-yl)methanone], for which the AC50 is above 5000 nM.

In the case of `CC(C)(F)c1ncc(C(=O)N2CCc3[nH]cnc3[C@H]2c2cc3ccccc3cn2)o1` [Example 339, (R)-(2-(2-fluoropropan-2-yl)oxazol-5-yl)(4-(isoquinolin-3-yl)-6,7-dihydro-1H-imidazo[4,5-c]pyridin-5(4H)-yl)methanone], the half-maximal activity concentration (AC50) is below 500 nM.

Consider `O=C(c1nnc(-c2ccc(F)cn2)o1)N1CCc2[nH]cnc2[C@H]1c1cc2ccccc2cn1` [Example 340, (R)-(5-(5-fluoropyridin-2-yl)-1,3,4-oxadiazol-2-yl)(4-(isoquinolin-3-yl)-6,7-dihydro-1H-imidazo[4,5-c]pyridin-5(4H)-yl)methanone], for which the AC50 is below 500 nM.

Consider `O=C(c1nnc(-c2ccc(F)cn2)o1)N1CCc2[nH]cnc2[C@@H]1c1cc2ccccc2cn1` [Example 341, (S)-(5-(5-fluoropyridin-2-yl)-1,3,4-oxadiazol-2-yl)(4-(isoquinolin-3-yl)-6,7-dihydro-1H-imidazo[4,5-c]pyridin-5(4H)-yl)methanone], for which the AC50 was above 5000 nM.

Consider `O=C(c1nnc(-c2ccc(F)cc2)o1)N1CCc2[nH]cnc2[C@H]1c1cc2ccccc2cn1` [Example 342, (R)-(5-(4-fluorophenyl)-1,3,4-oxadiazol-2-yl)(4-(isoquinolin-3-yl)-6,7-dihydro-1H-imidazo[4,5-c]pyridin-5(4H)-yl)methanone], for which the AC50 was below 500 nM.

Consider `O=C(c1nnc(-c2ccc(F)cc2)o1)N1CCc2[nH]cnc2[C@@H]1c1cc2ccccc2cn1` [Example 343, (S)-(5-(4-fluorophenyl)-1,3,4-oxadiazol-2-yl)(4-(isoquinolin-3-yl)-6,7-dihydro-1H-imidazo[4,5-c]pyridin-5(4H)-yl)methanone], for which the half-maximal activity concentration (AC50) was above 5000 nM.

Consider `CC(C)(F)c1ccc2c(C(=O)N3CCc4[nH]cnc4[C@H]3c3cc4ccccc4cn3)cnn2c1` [Example 344, (R)-(6-(2-fluoropropan-2-yl)pyrazolo[1,5-a]pyridin-3-yl)(4-(isoquinolin-3-yl)-6,7-dihydro-1H-imidazo[4,5-c]pyridin-5(4H)-yl)methanone], for which the AC50 was in the range of 500 to 1000 nM.

Regarding `Cc1nnc(CCC(=O)N2CCc3[nH]cnc3[C@H]2c2cc3ccccc3cn2)o1` [Example 345, (R)-1-(4-(isoquinolin-3-yl)-6,7-dihydro-1H-imidazo[4,5-c]pyridin-5(4H)-yl)-3-(5-methyl-1,3,4-oxadiazol-2-yl)propan-1-one], the AC50 lay within 500 to 1000 nM.

`O=C(CCc1nnc(C(F)F)o1)N1CCc2[nH]cnc2[C@H]1c1cc2ccccc2cn1` [Example 346, (R)-3-(5-(difluoromethyl)-1,3,4-oxadiazol-2-yl)-1-(4-(isoquinolin-3-yl)-6,7-dihydro-1H-imidazo[4,5-c]pyridin-5(4H)-yl)propan-1-one]: the AC50 lay in the range of 1000 to 5000 nM.

On to `CC(C)(O)c1nnc(C(=O)N2CCc3[nH]cnc3[C@H]2c2cc3ccccc3cn2)o1` [Example 347, (R)-(5-(2-hydroxypropan-2-yl)-1,3,4-oxadiazol-2-yl)(4-(isoquinolin-3-yl)-6,7-dihydro-1H-imidazo[4,5-c]pyridin-5(4H)-yl)methanone], for which the AC50 was in the range of 500 to 1000 nM.

With `O=C(c1ocnc1-c1ccccc1)N1CCc2[nH]cnc2[C@H]1c1cc2ccccc2cn1` [Example 348, (R)-(4-(isoquinolin-3-yl)-6,7-dihydro-1H-imidazo[4,5-c]pyridin-5(4H)-yl)(4-phenyloxazol-5-yl)methanone], the AC50 is below 500 nM.

On to `O=C(Cc1nncs1)N1CCc2[nH]cnc2[C@H]1c1cc2ccccc2cn1` [Example 349, (R)-1-(4-(isoquinolin-3-yl)-6,7-dihydro-1H-imidazo[4,5-c]pyridin-5(4H)-yl)-2-(1,3,4-thiadiazol-2-yl)ethanone], for which the half-maximal activity concentration (AC50) was below 500 nM.

On to `O=C(c1nncs1)N1CCc2[nH]cnc2[C@H]1c1cc2ccccc2cn1` [Example 350, (R)-(4-(isoquinolin-3-yl)-6,7-dihydro-1H-imidazo[4,5-c]pyridin-5(4H)-yl)(1,3,4-thiadiazol-2-yl)methanone], for which the AC50 was below 500 nM.

For `Cc1nnc(CC(=O)N2CCc3[nH]cnc3[C@H]2c2cc3ccccc3cn2)s1` [Example 351, (R)-1-(4-(isoquinolin-3-yl)-6,7-dihydro-1H-imidazo[4,5-c]pyridin-5(4H)-yl)-2-(5-methyl-1,3,4-thiadiazol-2-yl)ethanone], the half-maximal activity concentration (AC50) was 500 to 1000 nM.

For the molecule `O=C(c1cnn2cc(Br)ccc12)N1CCc2[nH]cnc2[C@H]1c1cc2ccccc2cn1` [Example 352, (R)-(6-bromopyrazolo[1,5-a]pyridin-3-yl)(4-(isoquinolin-3-yl)-6,7-dihydro-1H-imidazo[4,5-c]pyridin-5(4H)-yl)methanone], the AC50 is below 500 nM.

Consider `O=C(c1ncn2ccccc12)N1CCc2[nH]cnc2[C@H]1c1cc2ccccc2cn1` [Example 353, (R)-imidazo[1,5-a]pyridin-1-yl(4-(isoquinolin-3-yl)-6,7-dihydro-1H-imidazo[4,5-c]pyridin-5(4H)-yl)methanone], for which the AC50 was below 500 nM.

On to `O=C(c1ocnc1-c1ccccn1)N1CCc2[nH]cnc2[C@H]1c1cc2ccccc2cn1` [Example 354, (R)-(4-(isoquinolin-3-yl)-6,7-dihydro-1H-imidazo[4,5-c]pyridin-5(4H)-yl)(4-(pyridin-2-yl)oxazol-5-yl)methanone], for which the AC50 is below 500 nM.

For the molecule `O=C(c1cnn2c(Br)cccc12)N1CCc2[nH]cnc2[C@H]1c1cc2ccccc2cn1` [Example 355, (R)-(7-bromopyrazolo[1,5-a]pyridin-3-yl)(4-(isoquinolin-3-yl)-6,7-dihydro-1H-imidazo[4,5-c]pyridin-5(4H)-yl)methanone], the concentration at half-maximal activity (AC50) is below 500 nM.

Regarding `O=C(c1cnn2ccc(Br)cc12)N1CCc2[nH]cnc2[C@H]1c1cc2ccccc2cn1` [Example 356, (R)-(5-bromopyrazolo[1,5-a]pyridin-3-yl)(4-(isoquinolin-3-yl)-6,7-dihydro-1H-imidazo[4,5-c]pyridin-5(4H)-yl)methanone], the AC50 was below 500 nM.

On to `O=C(c1cnn2cccc(F)c12)N1CCc2[nH]cnc2[C@H]1c1cc2ccccc2cn1` [Example 357, (R)-(4-fluoropyrazolo[1,5-a]pyridin-3-yl)(4-(isoquinolin-3-yl)-6,7-dihydro-1H-imidazo[4,5-c]pyridin-5(4H)-yl)methanone], for which the AC50 is below 500 nM.

One may read the AC50 as the concentration giving half of the maximal activity seen.
